# Results: patent US20110152210A1, “POLYPHENOL COMPOUNDS FOR INHIBITING PROTEASOME AND USES THEREOF” (THE ROYAL INSTITUTION FOR THE ADVANCEMENT OF …, priority 2009, published 2011)
# Entries after “also recorded” stand apart in the source; their conditions may differ.
# Columns and labels:
# [1] = target: T1, Purified rabbit 20S proteasome (Oryctolagus cuniculus, UniProt G1T4Q9); assay: Inhibition of chymotrypsin-like activity of purified 20S proteasome; format: biochemical; conditions: for IC50: Suc-LLVY-AMC, 2 h at 37° C., read-out: IC50, inhibition of proteasomal chymotrypsin-like activity; for inhibition of proteasomal chymotryptic activity (in words): 2 h
# T1 sequence (G1T4Q9 60-263): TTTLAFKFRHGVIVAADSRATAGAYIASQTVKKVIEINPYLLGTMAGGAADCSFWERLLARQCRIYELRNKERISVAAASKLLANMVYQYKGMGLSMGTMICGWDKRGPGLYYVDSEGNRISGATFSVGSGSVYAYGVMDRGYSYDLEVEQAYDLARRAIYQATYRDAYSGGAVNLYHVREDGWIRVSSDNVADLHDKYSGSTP
# Excerpt: EGCG was used as a comparative standard. Materials. Purified rabbit 20S proteasome and fluorogenic substrate Suc-LLVY-AMC for the proteasomal chymotrypsinlike (CT-like) activity were obtained from Calbiochem Inc. (San Diego, Calif.). Fetal bovine serum (FBS) was from Tissue Culture Biologicals (Tulare, Calif.). Penicillin and streptomycin were purchased from Invitrogen Co. (Carlsbad, Calif.). RPMI 1640 medium was purchased from Invitrogen Co. (Carlsbad, Calif.). […] Inhibition of purified 20S proteasome activity by EGCG and its analogs.
# [2] = tested on: human multiple myeloma ARP cells; assay: MTT assay in multiple myeloma ARP cells, alone or combined with Velcade; format: cell-based; conditions: 48 hrs; for effect on cell proliferation in combination with bortezomib (in words): 20 μM with varying doses of Velcade; for inhibition of cell proliferation as single agent (in words): ARP cells
# Experimental: The cells were treated with Velcade alone or with 20 μM of compounds 5, 7 and 23 or in combination with varying doses of Velcade for 48 hrs, followed by a MTT assay.
# Deep purple color indicates fully viable cells; light purple color indicates a reduced number of viable cells; and yellowish color indicates an absence of viable cells.
# MTT assay. Cells were grown in a 96-well plate. Triplicate wells of cells were treated with indicated concentrations of EGCG or EGCG analogs for 24 h. After aspiration of medium, MTT (1 mg/ml) was then added to the cell cultures, followed by incubation for 3 h at 37° C. After cells were crystallized, MTT was removed and DMSO was added to dissolve the metabolized MTT product. The absorbance was then measured on a Wallac Victor3 1420 Multi-label counter at 540 nm.
# cancer cell lines = conditions: a number of cancer cell lines; cited from earlier work
structure (smiles),measurement,setting,value
O=C(O[C@H]1Cc2ccccc2C[C@H]1OC(=O)c1cc(O)cc(O)c1)c1cc(O)cc(O)c1 [Compound 7],IC50,[1],29 µM
same,effect on cell proliferation in combination with bortezomib (in words),[2],synergistic inhibitory effect
same,inhibition of cell proliferation as single agent (in words),[2],most potent cell proliferation inhibitor
"CC(=O)Oc1cc(OC(C)=O)c2c(c1)O[C@H](c1cc(OC(C)=O)c(OC(C)=O)c(OC(C)=O)c1)[C@H](OC(=O)c1cc(OC(C)=O)c(OC(C)=O)c(OC(C)=O)c1)C2 [Compound 4, (−)Epigallocatechin gallate octa acetate, reference compound]",inhibition of proteasomal chymotryptic activity (in words),[1],"none of the resulting derivatives 4, 6, 8, 17 and 22 exhibited proteasomal inhibition"
same,growth inhibitory activity compared to EGCG (1) (in words),cancer cell lines,enhanced growth inhibitory activity
O=C(O[C@H]1Cc2ccccc2C[C@H]1OC(=O)c1cc(O)c(O)c(O)c1)c1cc(O)c(O)c(O)c1 [Compound 5],IC50,[1],19 µM
same,effect on cell proliferation in combination with bortezomib (in words),[2],interfered with; also recorded: partially block the inhibitory effect of bortezomib
"CC(C)C[C@H](NC(=O)[C@H](Cc1ccccc1)NC(=O)c1cnccn1)B(O)O [bortezomib, reference compound]",inhibition of cell proliferation as single agent (in words),[2],reduced cell proliferation in a dose-dependent manner
CC(=O)Oc1cc(C(=O)O[C@H]2Cc3ccccc3C[C@H]2OC(C)=O)cc(OC(C)=O)c1OC(C)=O [Compound 17],inhibition of proteasomal chymotryptic activity (in words),[1],"none of the resulting derivatives 4, 6, 8, 17 and 22 exhibited proteasomal inhibition"
"O=C(O[C@@H]1Cc2c(O)cc(O)cc2O[C@@H]1c1cc(O)c(O)c(O)c1)c1cc(O)c(O)c(O)c1 [EGCG, (−)Epigallocatechin gallate, reference compound]",inhibition of proteasomal chymotryptic activity (in words),[1],potently inhibited
CC(=O)Oc1cc(OC(C)=O)cc(C(=O)O[C@H]2Cc3ccccc3C[C@H]2OC(C)=O)c1 [Compound 22],inhibition of proteasomal chymotryptic activity (in words),[1],"none of the resulting derivatives 4, 6, 8, 17 and 22 exhibited proteasomal inhibition"
